According to PMC10463376, “Design, synthesis, in vitro anticancer, molecular docking and SAR studies of new series of pyrrolo[2,3-d]pyrimidine derivatives” (BMC Chemistry, 2023):
≈ marks a conversion by molar mass, not a printed value. Entries after “also recorded” stand apart in the source; their conditions may differ. Like-named read-outs stand apart in the source and are kept apart here.

Assays:
P53 = assay: RT-qPCR P53 mRNA in MCF7; format: cell-based, human; settings: MCF7, vs negative control
Procedure: (§1) All of the extractions were conducted on ice with ice-cold reagents. Total RNA from the different cell lines was isolated using Trizol (Invitrogen; Life Technologies, USA) according to the method of Sthoeger et al.. The 260:280 ratios were measured to determine RNA quality after the isolation method was completed according to the manufacturer’s instructions. A high-capacity cDNA reverse transcription kit was used to produce complementary DNA (cDNA) (Applied Biosystems, USA). […] The relative gene expression method (i.e., ΔΔCT) was used to analyze the real-time PCR data, as explained in Applied Biosystem User Bulletin No. 2. Each sample and gene were normalized using the β-actin gene.

MCF7 breast cancer cells = assay: MTT assay, MCF7; settings: for IC50 / cytotoxicity at 100 µg/mL: Homo sapiens, MCF7, 72 h; for IC50: read-out: IC50 MCF7; for cytotoxicity at 100 µg/mL / cytotoxicity: read-out: MTT cell proliferation mortality assay (%) MCF7; for cytotoxicity: at 100 μg/ml, 72 h
From the text: (§2) All of the following steps were done in a sterile Laminar flow class II biosafety cabinet (Baker, SG406INT, Sanford, ME, USA). DMEM was used as a suspension medium for breast cancer (MCF7), colorectal cancer (HCT116), prostate cancer (PC3), liver cancer (HePG2), pancreatic cancer (PACA2) and lung cancer (A549), while normal cell line (BJ1) was suspended in DMEM-F12 medium. The selected cell lines were purchased from American Type Culture Collection (ATCC). The media were supplemented with a 1% antimycotic-antibiotic mixture (10,000 µg/ml streptomycin sulfate, 25 µg/ml Amphotericin B, and 10,000 U/ml Potassium Penicillin) and 1% L-glutamine. 10 × 10^4cells/well were seeded in 96 well microtiter plates and incubated for 24 h at 37 ℃ under 5% carbon dioxide using a water-jacketed Carbon dioxide incubator (Sheldon, SCO5A, OR, USA). […] After the incubation time of 72 h, the medium was removed. Afterward, 40 µl MTT salt ([…]) was added to each well and kept for 4 h under the same conditions of 37 °C and 5% carbon dioxide. Finally, 200 μl of 10% Sodium dodecyl sulfate (SDS) in deionized water was added to each well and incubated overnight at 37 °C. The step of SDS addition was done to stop the reaction and dissolve the formed formazan crystals. The absorbance was then measured at a wavelength of 595 nm and the reference wavelength was set at 620 nm using a microplate multi-well reader (Bio-Rad Laboratories Inc., model 3356, California, USA). […] A statistical significance analysis was determined between the samples and the negative control using an independent t-test by SPSS 11 program. Dimethyl sulfoxide (DMSO) was the vehicle that dissolved our synthesized compounds and its concentration in the cells was less than 0.2%. IC50 values were calculated using the GraphPad Prism 6 program. The degree of selectivity of the synthetic compounds was expressed as SI = IC50 of a pure compound in a normal cell line/IC50 of the same pure compound in the cancer cell line, where IC50 is the concentration of the compound required to kill 50% of the cells.

HePG2 liver cancer cells = assay: MTT assay, HePG2; settings: Homo sapiens, HepG2, 72 h; for IC50: read-out: IC50 HePG2; for cytotoxicity at 100 µg/mL: read-out: MTT cell proliferation mortality assay (%) HePG2
From the text: as §2

[1] = system: PACA2 pancreatic cancer cells; assay: MTT assay, PACA2; settings: Homo sapiens, PaCa-2, 72 h; for IC50: read-out: IC50 PACA2; for cytotoxicity at 100 µg/mL: read-out: MTT cell proliferation mortality assay (%) PACA2
From the text: as §2

DR5 = assay: RT-qPCR DR5 mRNA in MCF7; format: cell-based, human; settings: MCF7, vs negative control
Procedure: as §1

[2] = system: HCT116 colorectal cancer cells; assay: MTT assay, HCT116; settings: for IC50 / cytotoxicity at 100 µg/mL: Homo sapiens, HCT-116, 72 h; for IC50: read-out: IC50 HCT116
From the text: as §2

A549 lung cancer cells = assay: MTT assay, A549; settings: for IC50 / cytotoxicity at 100 µg/mL: Homo sapiens, A549, 72 h; for IC50: read-out: IC50 A549
From the text: as §2

[3] = MTT assay, normal cell line BJ1; format: cell-based; settings: human, at 100 μg/ml, read-out: MTT cell proliferation mortality assay (%) BJ1
From the text: as §2

[4] = system: breast cancer cell line (MCF-7); assay: DNA fragmentation assay, MCF7; format: cell-based, human; settings: MCF7, IC50, 24 h, vs negative control (P < 0.01); order 14a > 18b > positive > 16b > 14b
Procedure: The DNA fragmentation assay in a pancreatic cell line (Paca2), breast cancer cell lines (MCF-7) and lung cell line (A549) was performed in concordance with the premises established by Yawata with some modifications. Briefly, after 24 h of exposure of Paca2, MCF-7 and A549 cancer cell lines to the prepared compounds in different Petri dishes (60 × 15 mm, Greiner), the cells were suspended and homogenized in 1 ml of medium and then centrifuged for 10 min at 900 rpm. The genomic DNA was extracted as shown in Yawata. About 1 × 10^6 cells of each tested cancer cell line were treated with the IC50 values of the tested compounds. All the cells were collected via trypsinization and washed with Dulbecco`s Phosphate Buffered Saline. Then, the cells were treated with the lysis buffer containing 5 mM ethylenediaminetetraacetic acid (EDTA), 10 mM Tris (pH 7.4), 0.5% Triton X-100 and 150 mM NaCl for 35 min on ice. After that, the lysates were vortexed and centrifuged for 20 min at 10.000 xg. The fragmented DNA was extracted from the supernatant with an equal volume of isoamyl alcohol: chloroform: neutral phenol mixture (1:24:25). Finally, the percentage of fragmented DNA was determined by performing gel electrophoresis using 2% agarose gel containing 0.1 μg/ml ethidium bromide.
Pancreatic cancer cell line (Paca2), breast cancer cell line (MCF-7) and lung cancer cell line (A549) were used to determine the percentage of DNA fragmentation after the treatment with IC50 of the tested compounds. The selected cells were suspended in 0.5 ml of lysis buffer containing 1 mM EDTA, 10 mM Tris–HCl (pH 8) and 0.2% triton X-100. Then, the cells were centrifuged at 10.000 rpm for 20 min at 4 °C. After removing the supernatant, the pellets were re-suspended in 0.5 ml of lysis buffer. Then, 0.5 ml of 25% tri-chloroacetic acid (TCA) was added to the pellets (P) and the supernatants (S), and incubated for 24 h at 4 °C. Afterwards, the cells were centrifuged at 4 °C for 25 min at 10,000 rpm and the pellets were suspended in […] of 5% TCA, followed by incubation at 80 °C for 20 min. Finally, […] of Diphenyl Amine (DPA) solution [[…] of sulfuric acid, 150 mg DPA in 10 ml glacial acetic acid, and […] acetaldehyde (16 mg/ml)] was added to each cell sample and kept at room temperature for 24 h. The percentage of fragmented DNA was measured from the absorbance reading at 600 nm wavelength using the following formula:
% Fragmented DNA = [OD(S)/[OD(S) + OD(P)] × 100 (OD: optical density, S: supernatant, P: pellet).

[5] = read-out: MTT cell proliferation mortality assay (%) HCT116, at 100 μg/ml, 72 h
[6] = read-out: MTT cell proliferation mortality assay (%) A549, at 100 μg/ml, 72 h

SMILES	P53 mRNA level (P53)	IC50 (MCF7 breast cancer cells)	cytotoxicity at 100 µg/mL (MCF7 breast cancer cells)	IC50 (HePG2 liver cancer cells)	cytotoxicity at 100 µg/mL (HePG2 liver cancer cells)	IC50 [1]	cytotoxicity at 100 µg/mL [1]	DR5 mRNA level (DR5)	IC50 [2]	cytotoxicity at 100 µg/mL ([2]; read-out: MTT cell proliferation mortality assay (%) HCT116)	IC50 (A549 lung cancer cells)	cytotoxicity at 100 µg/mL (A549 lung cancer cells; read-out: MTT cell proliferation mortality assay (%) A549)	cytotoxicity at 72 h, 100 μg/ml [3]	cytotoxicity (MCF7 breast cancer cells)	cytotoxicity at 100 µg/mL [2, 5]	cytotoxicity [2, 5]	cytotoxicity at 100 µg/mL (A549 lung cancer cells; [6])	cytotoxicity (A549 lung cancer cells; [6])	DNA fragmentation rate [4]
COc1cccc2c1C(=O)c1c(O)c3c(c(O)c1C2=O)C[C@@](O)(C(=O)CO)C[C@@H]3O[C@H]1C[C@H](N)[C@H](O)[C@H](C)O1 [Dox, Doxorubicin, reference compound]	up-regulated	26.1 ± 0.1 µg/mL (≈ 48 µM)	100%	21.6 ± 0.8 µg/mL (≈ 39.7 µM)	100%	28.3 ± 0.4 µg/mL (≈ 52.1 µM)	100%	increased	37.6 ± 0.8 µg/mL (≈ 69.2 µM)	100%	28.3 ± 1.3 µg/mL (≈ 52.1 µM)	100%	–	–	–	–	–	–	–
COc1ccc(-c2c(Cl)n(-c3ccc(Cl)cc3Cl)c3ncnc(Cl)c23)cc1OC [Compound 4b, 4,6-dichloro-7-(2,4-dichlorophenyl)-5-(3,4-dimethoxyphenyl)-7H-pyrrolo[2,3-d]pyrimidine]	–	45.8 ± 1 µg/mL (≈ 97.6 µM)	90.3 ± 4.9%	84.3 ± 0.7 µg/mL (≈ 180 µM)	84.3 ± 0.9%	–	100%	–	58.4 ± 0.7 µg/mL (≈ 124 µM)	–	17.5 ± 0.4 µg/mL (≈ 37.3 µM)	–	22.5 ± 0.3%	80 to 95%	80 to 90%	90.2 ± 1%	100%	–	–
CN1CCN(c2nc(C(Cl)(Cl)Cl)nc3c2c(-c2ccc(Br)cc2)c(Cl)n3-c2ccc(Cl)cc2Cl)CC1 [Compound 17, 5-(4-bromophenyl)-6-chloro-7-(2,4-dichlorophenyl)-4-(4-methylpiperazin-1-yl)-2-(trichloromethyl)-7H-pyrrolo[2,3-d]pyrimidine]	–	–	74.3 ± 1.7%	8.7 ± 0.8 µg/mL (≈ 13 µM)	100%	6.4 ± 0.7 µg/mL (≈ 9.57 µM)	100%	–	37.8 ± 0.4 µg/mL (≈ 56.5 µM)	–	34.1 ± 1.5 µg/mL (≈ 51 µM)	–	12.5 ± 1.7%	–	100%	–	80 to 90%	89.2 ± 0.4%	–
COc1ccc(-c2c(Cl)n(-c3ccc(Cl)cc3Cl)c3ncnc(N4CCN(C)CC4)c23)cc1OC [Compound 16b, 6-chloro-7-(2,4-dichlorophenyl)-5-(3,4-dimethoxyphenyl)-4-(4-methylpiperazin-1-yl)-7H-pyrrolo[2,3-d]pyrimidine]	up-regulated; also recorded: significantly increased	5.7 ± 0.9 µg/mL (≈ 10.7 µM)	100%	–	–	–	100%	increased	–	–	–	–	–	–	–	–	100%	–	increased significantly
COc1ccc(-c2c(Cl)n(-c3ccc(Cl)cc3Cl)c3ncnc(N4CCOCC4)c23)cc1OC [Compound 18b, 4-(6-chloro-7-(2,4-dichlorophenyl)-5-(3,4-dimethoxyphenyl)-7H-pyrrolo[2,3-d]pyrimidin-4-yl)morpholine]	significantly increased; also recorded: up-regulated	3.4 ± 0.3 µg/mL (≈ 6.54 µM)	100%	28.1 ± 0.4 µg/mL (≈ 54.1 µM)	100%	15 ± 0.9 µg/mL (≈ 28.9 µM)	100%	increased; also recorded: up-regulated	–	–	–	–	20.6 ± 2.1%	–	–	–	11.2 ± 0.6%	–	increased significantly
COc1ccc(-c2c(Cl)n(-c3ccc(Cl)cc3Cl)c3ncnc(NN)c23)cc1OC [Compound 14b, 6-chloro-7-(2,4-dichlorophenyl)-5-(3,4-dimethoxyphenyl)-4-hydrazineyl-7H-pyrrolo[2,3-d]pyrimidine]	significantly increased; also recorded: up-regulated	16.8 ± 0.9 µg/mL (≈ 36.1 µM)	94.9 ± 1.1%	17.5 ± 0.8 µg/mL (≈ 37.7 µM)	100%	–	100%	increased; also recorded: up-regulated	–	–	–	–	–	80 to 95%	100%	–	100%	–	increased significantly
NNc1ncnc2c1c(-c1ccc(Br)cc1)c(Cl)n2-c1ccc(Cl)cc1Cl [Compound 14a, 5-(4-bromophenyl)-6-chloro-7-(2,4-dichlorophenyl)-4-hydrazineyl-7H-pyrrolo[2,3-d]pyrimidine]	significantly increased; also recorded: up-regulated	1.7 ± 0.4 µg/mL (≈ 3.52 µM)	100%	37.9 ± 0.9 µg/mL (≈ 78.4 µM)	100%	–	100%	increased; also recorded: up-regulated	–	–	–	–	30.8 ± 0.2%	–	100%	–	100%	–	increased significantly
